pIC50: −log10 of the molar value.
What was measured:
[1] = test system: male and female CD-1 mice; test: Catalepsy ring test; type: in vivo; conditions: for catalepsy vs baseline: 15 min after i.p. 200 mg/kg terpene or 5.6 mg/kg WIN55,212-2, Fig. S2B
Description: Potential induction of catalepsy was assessed using the ring test as described. Mice were baselined, injected with compound, and then assessed with the ring test at 15 min post-injection. Data was represented as the percentage (%) of time in a “cataleptic” immobile state over the 5 min observation period.

[2] = test system: male and female CD-1 mice; test: Tail flick thermal latency test (antinociception); type: in vivo; conditions: Fig. S1
Description: Antinociception was tested using the tail flick thermal latency test. Mice were baselined by gently restraining the animal and lowering the distal portion of the tail into a water bath set to 52 °C or 47 °C where stated, and the latency to flick the tail recorded with a stopwatch, with a 10 s cutoff. Mice were then injected with compounds intraperitoneally (i.p.). Thermal latency was then assessed over a time course of 2 h, or at a single time-point as noted. […] For assays using terpene/WIN55,212-2 co-treatment, WIN55,212-2 was co-administered with terpene in the same solution.

CB1 [3] = molecular target: T1, CB1 (Homo sapiens, UniProt P21554); type: cell-based; conditions: varying concentrations, 5 min, Fig. 6
T1 sequence (P21554 whole entry): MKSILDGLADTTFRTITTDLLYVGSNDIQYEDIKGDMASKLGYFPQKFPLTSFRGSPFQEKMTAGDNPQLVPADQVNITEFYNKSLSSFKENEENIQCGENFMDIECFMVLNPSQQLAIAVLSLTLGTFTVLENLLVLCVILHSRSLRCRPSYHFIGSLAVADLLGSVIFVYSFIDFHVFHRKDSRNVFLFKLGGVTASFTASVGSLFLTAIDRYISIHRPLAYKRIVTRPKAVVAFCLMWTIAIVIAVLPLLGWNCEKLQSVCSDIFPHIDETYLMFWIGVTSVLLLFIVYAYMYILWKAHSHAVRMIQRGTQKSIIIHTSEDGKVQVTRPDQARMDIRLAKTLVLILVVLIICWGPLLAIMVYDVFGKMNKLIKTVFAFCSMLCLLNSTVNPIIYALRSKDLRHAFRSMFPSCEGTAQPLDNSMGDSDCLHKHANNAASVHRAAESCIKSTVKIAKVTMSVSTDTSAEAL
Description: WT-CHO cells were obtained from ATCC (#CCL-61). […] CHO cells stably expressing cloned CB2 (CB2-CHO) were produced by electroporation with the human CB2 N-3xHA tag cDNA (GeneCopoeia). A stable expressing population was selected for with 500 μg/mL G418. […] All cells were grown on 10 cm dishes in DMEM/F-12 50/50 mix w/ L-glutamine and 15 mM HEPES (Corning) containing 10% heat-inactivated fetal bovine serum, 100 units/mL penicillin, 100 units/mL streptomycin, and 400 μg/mL G418 (CB1-CHO-C2, CB1-CHO-C3, CB2-CHO, MOR-CHO); 800 μg/mL G418 (CB1-CHO-cAMP); 800 μg/mL G418 and 300 μg/mL hygromycin B (CB1-CHO-βarr2). WT CHO were grown as stated above without selection antibiotic. Cells were incubated in a humidified incubator at 37 °C with 5% CO2 and were sub-cultured every 2–3 days.
Cells were plated in 6-well plates 24 h prior to the start of the experiments. Cells were serum starved for 1 h then treated for 5 min with compound. In antagonist experiments, cells were pretreated for 5 min before agonist treatment for 5 min. […] Cells were scraped and collected. Lysates were vortexed then centrifuged at 13 k rpm at 4 °C for 10 min. […]
Cell lysate protein was quantified with a modified BCA protein assay using manufacturers protocol (Bio-Rad). […] Bands were analyzed using Image-J and reported as pERK/tERK normalized to the standard, or simply as pERK/tERK.

CB1 [4] = molecular target: T1, CB1; test: biochemical; type: binding; conditions: CB1-CHO membranes; for competition for the orthosteric binding site against CP55,940: Fig. 8A
WT CHO cells = test: ERK phosphorylation (Western) in WT CHO cells; type: cell-based; conditions: for ERK phosphorylation in WT CHO cells: 500 μM terpene or 10 μM WIN55,212-2, 5 min, Fig. 7B
Description: WT-CHO cells were obtained from ATCC (#CCL-61). CHO cells stably expressing the human CB1 receptor were obtained from PerkinElmer (#ES-110-C) and utilized for western blots (CB1-CHO-C2) or binding assays (CB1-CHO-C3). HitHunter (CB1-CHO-cAMP) and PathHunter (CB-CHO-βarr2) assays were performed on respective CB1-CHO lines, and were a kind gift from Dr. Robert Laprairie[44]. CHO cells stably expressing cloned CB2 (CB2-CHO) were produced by electroporation with the human CB2 N-3xHA tag cDNA (GeneCopoeia). A stable expressing population was selected for with 500 μg/mL G418. CHO cells stably expressing the human mu opioid receptor were obtained from PerkinElmer (#ES-542-C). All cells were grown on 10 cm dishes in DMEM/F-12 50/50 mix w/ L-glutamine and 15 mM HEPES (Corning) containing 10% heat-inactivated fetal bovine serum, 100 units/mL penicillin, 100 units/mL streptomycin, and 400 μg/mL G418 (CB1-CHO-C2, CB1-CHO-C3, CB2-CHO, MOR-CHO); 800 μg/mL G418 (CB1-CHO-cAMP); 800 μg/mL G418 and 300 μg/mL hygromycin B (CB1-CHO-βarr2). WT CHO were grown as stated above without selection antibiotic. Cells were incubated in a humidified incubator at 37 °C with 5% CO2 and were sub-cultured every 2–3 days.
Cells were plated in 6-well plates 24 h prior to the start of the experiments. Cells were serum starved for 1 h then treated for 5 min with compound. In antagonist experiments, cells were pretreated for 5 min before agonist treatment for 5 min. Media was then aspirated, cells were placed on ice, washed with ice-cold PBS once, and lysis buffer (20 mM Tris–HCl, pH 7.4, 150 mM NaCl, 2 mM EDTA, 0.1% SDS, 1% Nonidet P-40, 0.25% deoxycholate, 1 mM sodium orthovanadate, 1 mM PMSF, 1 mM sodium fluoride, and a protease inhibitor cocktail (EMD Millipore)), was added. Cells were scraped and collected. Lysates were vortexed then centrifuged at 13 k rpm at 4 °C for 10 min. Lysates were then processed for Western blots or stored at − 80 °C.
Cell lysate protein was quantified with a modified BCA protein assay using manufacturers protocol (Bio-Rad). Samples (20–30 μg) were ran on precast gels (10% Bis–Tris, Bolt brand, from ThermoFisher). Gels were wet-transferred to nitrocellulose membranes at 30 V for at least 60 min at 4 °C. Blots were blocked with 5% non-fat dry milk in TBS for 30 min, washed 3 × for 5 min with TBS + 0.1% Tween-20 (TBST), and incubated with primary antibody overnight at 4 °C. Primary antibody: pERK and tERK (Cell Signaling) at 1:1000 dilution in 5% BSA in TBST. Blots were then washed 3 × with TBST then incubated with secondary antibodies for 90 min at room temperature. Secondary antibodies: Goat anti-Rabbit 800 W and Goat anti-Mouse 680 diluted at 1:10,000 and 1:20,000 (Licor), respectively, in 5% non-fat milk in TBST. Blots were washed 3X with TBST and 1 × with TBS, then imaged on a Licor Odyssey Fc or Azure Sapphire. Bands were analyzed using Image-J and reported as pERK/tERK normalized to the standard, or simply as pERK/tERK.

[5] = test system: male and female CD-1 mice; test: Open field test (hypolocomotion); conditions: for distance traveled and mobile time, experiment without baseline recording: vs Vehicle, Fig. S3A,B
Description: All experiments were performed on male and female CD-1 (a.k.a. ICR) mice obtained from Charles River in age-matched cohorts of 5–6 weeks of age. […] The animals were maintained in an AAALAC-accredited vivarium at the University of Arizona in temperature and humidity-controlled rooms on a 12-h light/dark cycle. Standard chow and water were available ad libitum. […] Mice were randomized to treatment group by randomization of mice to cages upon arrival, and block random assignment of cages to treatment group. The experimenter was blinded to treatment group by the delivery of coded drug vials. The groups were not decoded until all data had been acquired.
The open field test was used to determine potential hypolocomotive properties induced by terpene and cannabinoid treatment. The open field box was a white box with an open top and black floor. The tracking area was 30 cm × 28 cm. Mice were baselined by placing the mouse in the center of the box and recording from a video camera ~ 1.5 m above for a period of 5 min. Mice were then injected with compound and placed back in the open field box 10–15 min post-injection. In follow-up experiments, mice were not baselined, injected with compound, and placed in the open field box from 10 to 15 min. The total distance traveled and mobile time of mice were analyzed using AnyMaze software.

human mu opioid receptor = molecular target: T2, human mu opioid receptor (Homo sapiens, UniProt P35372); type: cell-based; conditions: 500 μM terpene or 10 μM morphine, 5 min, Fig. S13A
T2 construct: host or cells: CHO (MOR-CHO)
T2 sequence (P35372 whole entry): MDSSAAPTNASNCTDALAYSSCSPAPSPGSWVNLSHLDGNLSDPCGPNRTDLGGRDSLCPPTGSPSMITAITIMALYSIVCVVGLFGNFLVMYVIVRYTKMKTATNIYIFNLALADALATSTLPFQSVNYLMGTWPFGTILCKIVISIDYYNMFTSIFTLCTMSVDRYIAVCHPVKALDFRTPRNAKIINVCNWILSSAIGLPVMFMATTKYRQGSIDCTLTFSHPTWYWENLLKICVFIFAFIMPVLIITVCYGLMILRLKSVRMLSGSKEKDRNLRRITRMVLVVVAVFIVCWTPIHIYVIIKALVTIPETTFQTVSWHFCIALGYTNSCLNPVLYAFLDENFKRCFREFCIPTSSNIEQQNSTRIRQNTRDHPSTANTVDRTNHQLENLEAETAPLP
Description: Cells were plated in 6-well plates 24 h prior to the start of the experiments. Cells were serum starved for 1 h then treated for 5 min with compound. In antagonist experiments, cells were pretreated for 5 min before agonist treatment for 5 min. […] Cells were scraped and collected. Lysates were vortexed then centrifuged at 13 k rpm at 4 °C for 10 min. Lysates were then processed for Western blots or stored at − 80 °C.
CHO cells were serum starved for 1 hr, then treated with Vehicle, 10 μM morphine, or 500
μM terpene for 5 min. ERK was quantitated and reported as above. Data expressed as the
vs. Vehicle group by 1 Way ANOVA with Dunnett’s post hoc test. B) MOR-CHO cells
serum starved for 1 hr, then pre-treated with Vehicle or 10 μM naloxone for 10 min, then
treated with Vehicle, 10 μM morphine, or 500 μM terpene for 5 min. ERK quantitated,
reported, and normalized as in A (n=3 independent experiments). *, **** = p < 0.05,
0.0001 vs. terpene-alone group for each set by 1 Way ANOVA with Sidak’s post hoc test
(set up as pairwise comparisons between terpene and terpene + naloxone for each set). For
both, representative blots are shown below each graph.

[6] = test system: male and female CD-1 mice; test: Cannabinoid tetrad of behaviors (antinociception, hypolocomotion, catalepsy, hypothermia); type: in vivo; conditions: 200 mg/kg terpene i.p. (β-Caryophyllene control)
Source text: Our first set of experiments sought to determine whether selected terpenes/terpenoids (α-Humulene, β-Pinene, Linalool [terpenoid], Geraniol [terpenoid], and β-Caryophyllene as a putative cannabinoid receptor type 2 [CB2] agonist control) had activity in the cannabinoid tetrad of behaviors mediated by the CB1 receptor: antinociception, hypolocomotion, catalepsy, and hypothermia. These terpenes were selected based on their quantities in Cannabis sativa, with α-Humulene, β-Pinene, Linalool, and β-Caryophyllene all being found in higher quantities and Geraniol in lower to underdetermined quantities. Although it is not clear if geraniol is present in higher quantities, we nonetheless chose this ligand due to its reported anti-nociceptive activity (e.g.[22]). Terpenes were administered at several doses (50–200 mg/kg) i.p. and assessed in the tail flick assay in male and female CD-1 mice. […]
Antinociception was tested using the tail flick thermal latency test. Mice were baselined by gently restraining the animal and lowering the distal portion of the tail into a water bath set to 52 °C or 47 °C where stated, and the latency to flick the tail recorded with a stopwatch, with a 10 s cutoff. […] Thermal latency was then assessed over a time course of 2 h, or at a single time-point as noted. […]
Potential induction of catalepsy was assessed using the ring test as described. […]

[7] = test system: male and female CD-1 mice; test: Hypothermia (core temperature, rectal thermometer); type: in vivo; conditions: 30 min after i.p. 200 mg/kg terpene or 5.6 mg/kg WIN55,212-2, Fig. S2A
Description: Changes in core temperature were assessed using a lubricated rectal thermometer placed 1.0 cm into the mouse rectum. Temperature was assessed before treatment and 30 min post-treatment.

CB1 [8] = molecular target: T1, CB1; type: cell-based; set-up: expressed in transfected cells; host or cells: CHO (CB1-CHO-βarr2 / CB1-CHO-DX), gift from Dr. Robert Laprairie; conditions: Fig. S14C
[9] = 200 mg/kg terpene or 5.6 mg/kg WIN55,212-2 i.p.

**Q.** Which results are given for `C=C1CC/C=C(\C)CC[C@@H]2[C@@H]1CC2(C)C` [β-Caryophyllene, reference compound]?
**A.** catalepsy vs baseline [1]: did not induce; tail flick antinociception (efficacy in words) ([2]; terpenes 50–200 mg/kg i.p. (β-Caryophyllene 100 mg/kg), WIN55,212-2 up to 10 mg/kg, over 2 h): low efficacy; ERK activation in CB1-CHO cells (CB1 [3]): activated downstream ERK signaling; competition for the orthosteric binding site against CP55,940 (CB1 [4]): some competition and semi-biphasic properties; rimonabant sensitivity of ERK activation in WT CHO cells (WT CHO cells; 500 μM terpene after 10 μM rimonabant, Fig. 7C): rimonabant-insensitive; ERK phosphorylation in WT CHO cells (WT CHO cells): activated ERK; distance traveled and mobile time, experiment without baseline recording [5, 9]: did not result in significant reductions; ERK stimulation in MOR-CHO cells (human mu opioid receptor): produced ERK stimulation; number of classic cannabinoid tetrad behaviors induced (out of 4) [6]: did not; hypothermia vs baseline [7]: did not induce

**Q.** What does the source list for `CC(C)=CCC/C(C)=C/CO` [Geraniol]?
**A.** effect of istradefyllene pretreatment on catalepsy response ([1]; 10 mg/kg istradefyllene, 200 mg/kg terpene, Fig. 4): partially blocked; effect of rimonabant pretreatment on catalepsy response ([1]; 10 mg/kg rimonabant, 200 mg/kg terpene, Fig. 4): no impact; catalepsy vs baseline [1]: significant increases in cataleptic behavior; efficacy in the tail flick assay ([2]; terpene 50–200 mg/kg i.p., dose-dependent): 40–50%; competition for the orthosteric binding site against CP55,940 (CB1 [4]): full competition; pIC50 (CB1 [4]; mean (95% CI), n = 5, Fig. 8A, read-out: IC50, competition binding against 3H-CP55,940): 4.35; ERK phosphorylation in WT CHO cells (WT CHO cells): did not cause ERK phosphorylation; effect of a full dose-range of Geraniol on WIN55,212-2 βarrestin2 recruitment (CB1 [8]): dose-dependent reductions in WIN55,212-2 recruitment; effect of istradefyllene pretreatment on mobile time ([5]; 10 mg/kg istradefyllene, 200 mg/kg terpene, Fig. 5): significant reversal; effect of istradefyllene pretreatment on distance traveled ([5]; 10 mg/kg istradefyllene, 200 mg/kg terpene, Fig. S7): istradefyllene reversal; locomotor activity vs baseline ([5]; 200 mg/kg terpene or 5.6 mg/kg WIN55,212-2 i.p., compared to baseline values, Fig. S2C,D, confounded by habituation): significant reductions in locomotor activity; distance traveled and mobile time, experiment without baseline recording [5, 9]: reductions in distance traveled and mobile time; ERK stimulation in MOR-CHO cells (human mu opioid receptor): no response; hypothermia vs baseline [7]: induced significant hypothermia

From PMC8050080, “Cannabis sativa terpenes are cannabimimetic and selectively enhance cannabinoid activity” (Scientific Reports, 2021)
